Laboratory results from US11267811B2, “Small molecule inhibitors of galectin-3” (BRISTOL-MYERS SQUIBB COMPANY, priority 2017, dated 2022).
pIC50: −log10 of the molar value. Like-named read-outs stand apart in the source and are kept apart here.

Biological target: His-tagged recombinant human Gal-3 (hGal-3) (Homo sapiens (Human), UniProt P17931)
Assay: Gal-3 HTRF assay (His-tagged hGal-3 binding to B-ASF);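 note: compounds preincubated 30 min with hGal-3, then 1 h with B-ASF, detection via terbium anti-His antibody and streptavidin d2. Control with B-ASF counts as full signal, omitting B-ASF as background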
[1] = HTRF, hGal-3 15 nM, B-ASF 15 nM, read-out: hGal-3 IC50

Sequence of His-tagged recombinant human Gal-3 (hGal-3) (P17931 whole entry): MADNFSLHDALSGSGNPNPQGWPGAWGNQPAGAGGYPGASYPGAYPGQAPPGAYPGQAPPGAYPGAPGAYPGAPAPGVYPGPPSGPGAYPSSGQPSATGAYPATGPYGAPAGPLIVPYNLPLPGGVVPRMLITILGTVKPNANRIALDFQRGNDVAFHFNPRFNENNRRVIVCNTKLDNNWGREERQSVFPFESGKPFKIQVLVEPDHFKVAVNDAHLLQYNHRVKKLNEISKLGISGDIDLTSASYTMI

pIC50 (read-out: hGal3 IC50) | pIC50 (read-out: hGal IC50) | SMILES | also measured
– | 7.57 | OC[C@H]1O[C@@H](c2ncnn2-c2cc(Cl)ccc2C(F)(F)F)[C@H](O)[C@@H](n2cc(-c3cc(F)c(F)c(F)c3)nn2)[C@H]1O [Example A7] | –
– | 6.30 | Cc1nc([C@@H]2O[C@H](CO)[C@H](O)[C@H](n3cc(-c4cc(F)c(F)c(F)c4)nn3)[C@H]2O)n(-c2ccc3nc(C(F)(F)F)sc3c2)n1 [Example A8] | –
– | 6.08 | Cc1nc([C@@H]2O[C@H](CO)[C@H](O)[C@H](n3cc(-c4ccc(Cl)c(F)c4)nn3)[C@H]2O)n(-c2ccc3nc(C(F)(F)F)sc3c2)n1 [Example A9] | –
– | 7.54 | Cc1nc([C@@H]2O[C@H](CO)[C@H](O)[C@H](n3cc(-c4cc(F)c(Cl)c(F)c4)nn3)[C@H]2O)n(-c2cc(Cl)cnc2C(F)(F)F)n1 [Example A10] | –
– | 7.77 | Cc1nc([C@@H]2O[C@H](CO)[C@H](O)[C@H](n3cc(-c4cc(F)c(Cl)c(F)c4)nn3)[C@H]2O)n(-c2cc(Cl)cc3cccnc23)n1 [Example A11] | –
– | 7.34 | Cc1nc([C@@H]2O[C@H](CO)[C@H](O)[C@H](n3cc(-c4ccc(Br)c(F)c4)nn3)[C@H]2O)n(-c2cc(Cl)cc3cccnc23)n1 [Example A12] | –
– | 7.66 | Cc1nc([C@@H]2O[C@H](CO)[C@H](O)[C@H](n3cc(-c4cc(F)c(Cl)c(F)c4)nn3)[C@H]2O)n(-c2cc(Cl)ccc2Br)n1 [Example A13] | –
– | 7.62 | Cc1nc([C@@H]2O[C@H](CO)[C@H](O)[C@H](n3cc(-c4cc(F)c(Br)c(F)c4)nn3)[C@H]2O)n(-c2cc(Cl)cc3cccnc23)n1 [Example A14] | –
– | 7.40 | Cc1nc([C@@H]2O[C@H](CO)[C@H](O)[C@H](n3cc(-c4ccc(Cl)c(F)c4)nn3)[C@H]2O)n(-c2cc(Cl)ccc2Br)n1 [Example A15] | –
– | 7.29 | Cc1nc([C@@H]2O[C@H](CO)[C@H](O)[C@H](n3cc(-c4cc(F)c(Cl)c(F)c4)nn3)[C@H]2O)n(-c2cc(Cl)cc3ncccc23)n1 [Example A16] | –
– | 7.09 | Cc1nc([C@@H]2O[C@H](CO)[C@H](O)[C@H](n3cc(-c4ccc(Br)c(F)c4)nn3)[C@H]2O)n(-c2cc(Cl)cc3ncccc23)n1 [Example A17] | –
– | 7.51 | Cc1nc([C@@H]2O[C@H](CO)[C@H](O)[C@H](n3cc(-c4ccc(Cl)c(F)c4)nn3)[C@H]2O)n(-c2cc(Cl)ccc2OC(F)(F)F)n1 [Example A20] | –

Second part, the compound before the results:

SMILES | pIC50 (read-out: hGal3 IC50) | pIC50 (read-out: hGal IC50) | also measured
O=C(NCCN1CCOCC1)c1nnc([C@@H]2O[C@H](CO)[C@H](O)[C@H](n3cc(-c4cccc(F)c4)nn3)[C@H]2O)o1 [Example 299, 5-((2R,3R,4S,5R,6R)-4-(4-(3-fluorophenyl)-1H-1,2,3-triazol-1-yl)-3,5-dihydroxy-6-(hydroxymethyl)tetrahydro-2H-pyran-2-yl)-N-(2-morpholinoethyl)-1,3,4-oxadiazole-2-carboxamide] | – | – | pIC50 [1]: 4.97
Cc1nc([C@@H]2O[C@H](CO)[C@H](O)[C@H](n3cc(-c4cccc(F)c4)nn3)[C@H]2O)oc1CO [Example 300, (2R,3R,4S,5R,6R)-4-(4-(3-fluorophenyl)-1H-1,2,3-triazol-1-yl)-2-(hydroxymethyl)-6-(5-(hydroxymethyl)-4-methyloxazol-2-yl)tetrahydro-2H-pyran-3,5-diol] | – | – | pIC50 [1]: 5.03
Cc1nc([C@@H]2O[C@H](CO)[C@H](O)[C@H](n3cc(-c4cccc(F)c4)nn3)[C@H]2O)oc1C(=O)O [Example 301, 2-((2R,3R,4S,5R,6R)-4-(4-(3-fluorophenyl)-1H-1,2,3-triazol-1-yl)-3,5-dihydroxy-6-(hydroxymethyl)tetrahydro-2H-pyran-2-yl)-4-methyloxazole-5-carboxylic acid] | – | – | pIC50 [1]: 5.20
Cc1nc2ccc(-n3cnnc3[C@@H]3O[C@H](CO)[C@H](O)[C@H](n4cc(-c5cc(F)c(Cl)c(F)c5)nn4)[C@H]3O)cc2s1 [Example 302] | 7.55 | – | –
Cc1nc2ccc(-n3cnnc3[C@@H]3O[C@H](CO)[C@H](O)[C@H](n4cc(-c5ccc(Cl)c(F)c5)nn4)[C@H]3O)cc2s1 [Example 303] | 7.64 | – | –
OC[C@H]1O[C@@H](c2nncn2-c2cc(Cl)ccc2Cl)[C@H](O)[C@@H](n2cc(-c3ccc(Cl)c(F)c3)nn2)[C@H]1O [Example 304] | 7.17 | – | –
Cc1nc2ccc(-n3c(C)nnc3[C@@H]3O[C@H](CO)[C@H](O)[C@H](n4cc(-c5ccc(Cl)c(F)c5)nn4)[C@H]3O)cc2s1 [Example 305] | 7.51 | – | –
Cc1nc2ccc(-n3c(C)nnc3[C@@H]3O[C@H](CO)[C@H](O)[C@H](n4cc(-c5cc(F)c(Cl)c(F)c5)nn4)[C@H]3O)cc2s1 [Example 306] | 7.46 | – | –
CO[C@@H]1[C@@H](n2cc(-c3cc(F)c(Cl)c(F)c3)nn2)[C@@H](O)[C@@H](CO)O[C@H]1c1nncn1-c1cc(Cl)ccc1C(F)(F)F [Example 308] | 7.66 | – | –
OC[C@H]1O[C@@H](c2nncn2-c2cc(Cl)ccc2C(F)(F)F)[C@H](O)[C@@H](n2cc(-c3ccc(Cl)c(F)c3)nn2)[C@H]1O [Example 309] | 7.70 | – | –
CO[C@@H]1[C@@H](n2cc(-c3cc(F)c(Cl)c(F)c3)nn2)[C@@H](O)[C@@H](CO)O[C@H]1c1nnc(C)n1-c1cc(Cl)ccc1C(F)(F)F [Example 310] | 7.66 | – | –
Cc1nnc([C@@H]2O[C@H](CO)[C@H](O)[C@H](n3cc(-c4cc(F)c(Cl)c(F)c4)nn3)[C@H]2O)n1-c1cc(Cl)ccc1C(F)(F)F [Example 311] | 7.92 | – | –
N#Cc1ccc(Cl)cc1-n1cnnc1[C@@H]1O[C@H](CO)[C@H](O)[C@H](n2cc(-c3cc(F)c(Cl)c(F)c3)nn2)[C@H]1O [Example 312] | 5.80 | – | –
Cc1nnc([C@@H]2O[C@H](CO)[C@H](O)[C@H](n3cc(-c4cc(F)c(Br)c(F)c4)nn3)[C@H]2O)n1-c1cc(Cl)ccc1C(F)(F)F [Example 313] | 8.06 | – | –
Cc1nc2ccc(-n3c([C@@H]4O[C@H](CO)[C@H](O)[C@H](n5cc(-c6cc(F)c(Br)c(F)c6)nn5)[C@H]4O)nnc3C(F)(F)F)cc2s1 [Example 314] | 7.24 | – | –
Cc1nc2ccc(-n3c([C@@H]4O[C@H](CO)[C@H](O)[C@H](n5cc(-c6ccc(Br)c(F)c6)nn5)[C@H]4O)nnc3C(F)(F)F)cc2s1 [Example 315] | 6.01 | – | –
Cc1nnc([C@@H]2O[C@H](CO)[C@H](O)[C@H](n3cc(-c4cc(F)c(Br)c(F)c4)nn3)[C@H]2O)n1-c1cc(Cl)cc2cccnc12 [Example 318] | 7.96 | – | –
Cc1nnc([C@@H]2O[C@H](CO)[C@H](O)[C@H](n3cc(-c4cc(F)c(Cl)c(F)c4)nn3)[C@H]2O)n1-c1cc(Cl)cc2cccnc12 [Example 319] | 7.85 | – | –
Cc1nc2ccc(-n3cnnc3[C@@H]3O[C@H](CO)[C@H](O)[C@H](n4cc(-c5cc(F)c(Br)c(F)c5)nn4)[C@H]3OCC(F)F)cc2s1 [Example 321, (2R,3R,4S,5R,6S)-4-(4-(4-bromo-3,5-difluorophenyl)-1H-1,2,3-triazol-1-yl)-5-(2,2-difluoroethoxy)-2-(hydroxymethyl)-6-(4-(2-methylbenzo[d]thiazol-6-yl)-4H-1,2,4-triazol-3-yl)tetrahydro-2H-pyran-3-ol] | – | – | pIC50 [1]: 7.28
Cc1nc2ccc(-n3cnnc3[C@@H]3O[C@H](CO)[C@H](O)[C@H](n4cc(-c5ccc(Br)c(F)c5)nn4)[C@H]3OCC(F)F)cc2s1 [Example 322, (2R,3R,4S,5R,6S)-4-(4-(4-bromo-3-fluorophenyl)-1H-1,2,3-triazol-1-yl)-5-(2,2-difluoroethoxy)-2-(hydroxymethyl)-6-(4-(2-methylbenzo[d]thiazol-6-yl)-4H-1,2,4-triazol-3-yl)tetrahydro-2H-pyran-3-ol] | – | – | pIC50 [1]: 7.14
OC[C@H]1O[C@@H](c2nncn2-c2cc(Cl)cc3cccnc23)[C@H](OCC(F)F)[C@@H](n2cc(-c3ccc(Br)c(F)c3)nn2)[C@H]1O [Example 323, (2R,3R,4S,5R,6S)-4-(4-(4-bromo-3-fluorophenyl)-1H-1,2,3-triazol-1-yl)-6-(4-(6-chloroquinolin-8-yl)-4H-1,2,4-triazol-3-yl)-5-(2,2-difluoroethoxy)-2-(hydroxymethyl)tetrahydro-2H-pyran-3-ol] | – | – | pIC50 [1]: 6.89
Cc1nnc([C@@H]2O[C@H](CO)[C@H](O)[C@H](n3cc(-c4ccc(Br)c(F)c4)nn3)[C@H]2OCC(F)F)n1-c1cc(Cl)ccc1C(F)(F)F [Example 325, (2R,3R,4S,5R,6S)-4-(4-(4-bromo-3-fluorophenyl)-1H-1,2,3-triazol-1-yl)-6-(4-(5-chloro-2-(trifluoromethyl)phenyl)-5-methyl-4H-1,2,4-triazol-3-yl)-5-(2,2-difluoroethoxy)-2-(hydroxymethyl)tetrahydro-2H-pyran-3-ol] | – | – | pIC50 [1]: 7.70
OC[C@H]1O[C@@H](c2nncn2-c2cc(Cl)ccc2Cl)[C@H](O)[C@@H](n2cc(-c3cc(F)c(Cl)c(F)c3)nn2)[C@H]1O [Example 326, (2S,3R,4R,5R,6R)-4-(4-(4-chloro-3,5-difluorophenyl)-1H-1,2,3-triazol-1-yl)-2-(4-(2,5-dichlorophenyl)-4H-1,2,4-triazol-3-yl)-6-(hydroxymethyl)tetrahydro-2H-py ran-3,5-diol] | – | – | pIC50 [1]: 7.36
Cc1nc([C@@H]2O[C@H](CO)[C@H](O)[C@H](n3cc(-c4ccc(Cl)c(Cl)c4)nn3)[C@H]2O)n(-c2cc(Cl)ccc2C(F)(F)F)n1 [Example A3, (2S,3R,4R,5R,6R)-2-(1-(5-Chloro-2-(trifluoromethyl)phenyl)-3-methyl-1H-1,2,4-triazol-5-yl)-4-(4-(3,4-dichlorophenyl)-1H-1,2,3-triazol-1-yl)-6-(hydroxymethyl)tetrahydro-2H-pyran-3,5-diol] | – | – | pIC50 [1]: 7.48
Cc1nc2ccc(-n3nc(C(F)(F)F)nc3[C@@H]3O[C@H](CO)[C@H](O)[C@H](n4cc(-c5cc(F)c(F)c(F)c5)nn4)[C@H]3O)cc2s1 [Example A4, (2R,3R,4R,5R,6S)-2-(Hydroxymethyl)-6-(1-(2-methylbenzo[d]thiazol-6-yl)-3-(trifluoromethyl)-1H-1,2,4-triazol-5-yl)-4-(4-(3,4,5-trifluorophenyl)-1H-1,2,3-triazol-1-yl)tetrahydro-2H-pyran-3,5-diol] | – | – | pIC50 [1]: 7.24
CO[C@@H]1[C@@H](n2cc(-c3cc(F)c(Cl)c(F)c3)nn2)[C@@H](O)[C@@H](CO)O[C@H]1c1nc(C)nn1-c1ccc2ncsc2c1 [Example A5, (2R,3R,4S,5R,6S)-6-(1-(Benzo[d]thiazol-6-yl)-3-methyl-1H-1,2,4-triazol-5-yl)-4-(4-(4-chloro-3,5-difluorophenyl)-1H-1,2,3-triazol-1-yl)-2-(hydroxymethyl)-5-methoxytetrahydro-2H-pyran-3-ol] | – | – | pIC50 [1]: 7.70
